Experiment [1] relates to blueberries. Briefly: Effect of ethanol on post-harvest mass loss of blueberries. To be noted: after just under four days, solvent only, no coating agent, 23-27 °C, humidity 40%-55%.
Text: The blueberries were all harvested simultaneously and divided into groups, each of the groups being qualitatively identical to the other groups (i.e., all groups had blueberries of approximately the same average size and quality).
Blueberries were harvested simultaneously and divided into four groups of sixty blueberries each, each of the groups being qualitatively identical (i.e., all groups had blueberries of approximately the same average size and quality). The first group of blueberries was not washed or treated in any way and served as a control group.
To treat the blueberries with the various solvents, the blueberries were placed in bags, and the solvent was poured into the bag. The bag was then sealed and lightly agitated until the entire surface of each blueberry was wet. The blueberries were then removed from the bag and allowed to dry on drying racks. The blueberries were kept under ambient room conditions at a temperature in the range of 23° C.-27° C. and humidity in the range of 40%-55% while they dried and for the entire duration of the time they were tested.
The test system of experiment [2] is Botrytis. The note with it: applied for 10 at least seconds; cited from earlier work.
Experiment [3] deals with Listeria monocytogenes. The note with it: cited from earlier work.

Turning to `CCO` [substantially pure ethanol (108), ethanol], the “average percent mass loss” value in experiment [1] was “about 19%”. In addition, the “ethanol concentration inhibiting germination” value in experiment [2] was at least 30%. For the same molecule, the “ethanol concentration inhibiting (not completely stopping) growth” value in experiment [3] is on record as 5%.

Source of the values: patent publication US20230380435A1, “METHOD FOR PREPARING AND PRESERVING SANITIZED PRODUCTS” (Apeel Technology, Inc., priority 2016, published 2023).
